Test results: patent publication US9850283B2, “Macrocyclic inhibitors of the PD-1/PD-L1 and CD80(B7-1)/PD-L1 protein/protein interactions” (BRISTOL-MYERS SQUIBB COMPANY, priority 2013, dated 2017)
Like-named read-outs stand apart in the source and are kept apart here. Positions of bridges follow the written chain, without caps; N, C: chain ends. Non-standard residues stand in square brackets, D forms with d. Residues, ends and D or L forms follow the SMILES beside them. ξ: configuration not given here. Hyp = O=C(O)[C@@H]1C[C@@H](O)CN1; NMeNle = CCCC[C@H](NC)C(=O)O; NMeS = CN[C@@H](CO)C(=O)O; NMeA = CN[C@@H](C)C(=O)O; Nle = CCCC[C@H](N)C(=O)O; Orn = NCCC[C@H](N)C(=O)O; ξAze = O=C(O)C1CCN1; ξP = O=C(O)C1CCCN1; Sar = CNCC(=O)O

Target: T1, Human PD-L1/PD-1 (Homo sapiens, UniProt Q9NZQ7)
T1 construct: made in house; host or cells: HEK293T
T1 sequence (Q9NZQ7 with tags, fused parts or gaps): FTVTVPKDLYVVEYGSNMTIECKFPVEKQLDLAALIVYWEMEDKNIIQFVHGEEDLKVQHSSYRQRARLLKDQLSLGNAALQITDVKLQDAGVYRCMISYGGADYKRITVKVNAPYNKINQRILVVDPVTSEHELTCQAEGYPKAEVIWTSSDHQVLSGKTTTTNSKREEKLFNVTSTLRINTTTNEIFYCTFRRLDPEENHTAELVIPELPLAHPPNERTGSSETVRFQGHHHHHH
Experiment: HTRF PD-1-Ig/PD-L1-His binding assay (human PD-L1)
Text: The ability of the macrocyclic peptides of the present disclosure to bind to PD-L1 was investigated using a PD-1/PD-L1 Homogenous Time-Resolved Fluorescence (HTRF) binding assay.
Homogenous Time-Resolved Fluorescence (HTRF) Assays of Binding of Soluble PD-1 to Soluble PD-L1. Soluble PD-1 and soluble PD-L1 refers to proteins with carboxyl-end truncations that remove the transmembrane-spanning regions and are fused to heterologous sequences, specifically the Fc portion of the human immunoglobuling G sequence (Ig) or the hexahistidine epitope tag (His). All binding studies were performed in an HTRF assay buffer consisting of dPBS supplemented with 0.1% (w/v) bovine serum albumin and 0.05% (v/v) Tween-20. […] PD-L1 fusion proteins from either human, cynomologous macaques, or mouse were used. HTRF detection was achieved using europium crypate-labeled anti-Ig monoclonal antibody (1 nM final) and allophycocyanin (APC) labeled anti-His monoclonal antibody (20 nM final). Antibodies were diluted in HTRF detection buffer and 5 μl was dispensed on top of binding reaction.

[1] = Table 8, Compound No. 1 variant macrocyclic peptides, read-out: HTRF Human PD-L1/PD-1 Binding Assay IC50

| SMILES | IC50 [1] | also measured |
| --- | --- | --- |
| CCCC[C@H]1C(=O)N(C)[C@@H](CCCC)C(=O)N[C@@H](CCCNC(=N)N)C(=O)N[C@H](C(=O)NCC(N)=O)CSCC(=O)N[C@@H](Cc2ccccc2)C(=O)N(C)[C@@H](C)C(=O)N[C@H](CC(N)=O)C(=O)N2CCC[C@H]2C(=O)N[C@@H](Cc2c[nH]cn2)C(=O)N[C@@H](CC(C)C)C(=O)N(C)CC(=O)N[C@@H](Cc2c[nH]c3ccccc23)C(=O)N[C@@H](CO)C(=O)N[C@@H](Cc2c[nH]c3ccccc23)C(=O)N1C [Compound No. 42] ({CH2CO}-F[NMeA][dN]PHL[Sar]WSW[NMeNle][NMeNle]RCG-NH2; thioether N-14) | > 10000 nM | – |
| CCCC[C@H]1C(=O)N(C)[C@@H](CCCC)C(=O)N[C@@H](CC(C)C)C(=O)N[C@H](C(=O)NCC(N)=O)CSCC(=O)N[C@@H](Cc2ccccc2)C(=O)N(C)[C@@H](C)C(=O)N[C@@H](CC(N)=O)C(=O)N2CCC[C@H]2C(=O)N[C@@H](Cc2cnc[nH]2)C(=O)N[C@@H](CCCNC(=N)N)C(=O)N[C@@H](CO)C(=O)N[C@@H](Cc2c[nH]c3ccccc23)C(=O)N[C@@H](CCCNC(=N)N)C(=O)N[C@@H](Cc2c[nH]c3ccccc23)C(=O)N1C [Compound No. 3] ({CH2CO}-F[NMeA]NPHRSWRW[NMeNle][NMeNle]LCG-NH2; thioether N-14) | – | IC50 (Table 6, read-out: HTRF Human PD-L1/PD-1 Binding Assay IC50): 13 nM |
| CCCC[C@H]1C(=O)N(C)[C@@H](CCCC)C(=O)N[C@@H](CCCNC(=N)N)C(=O)N[C@H](C(=O)NCC(N)=O)CSCC(=O)N[C@@H](Cc2ccccc2)C(=O)N(C)[C@@H](C)C(=O)N[C@@H](CC(N)=O)C(=O)N2CCC2C(=O)N[C@@H](Cc2cnc[nH]2)C(=O)N[C@@H](CC(C)C)C(=O)N(C)CC(=O)N[C@@H](Cc2c[nH]c3ccccc23)C(=O)N[C@@H](CO)C(=O)N[C@@H](Cc2c[nH]c3ccccc23)C(=O)N1C (some centres unmarked) [Compound No. 50] ({CH2CO}-F[NMeA]N[ξAze]HL[Sar]WSW[NMeNle][NMeNle]RCG-NH2; thioether N-14) | 71 nM | – |
| CCCC[C@H]1C(=O)N(C)[C@@H](C)C(=O)N[C@@H](CCCNC(=N)N)C(=O)N[C@H](C(=O)NCC(N)=O)CSCC(=O)N[C@@H](Cc2ccccc2)C(=O)N(C)[C@@H](C)C(=O)N[C@@H](CC(N)=O)C(=O)N2CCCC2C(=O)N[C@@H](Cc2cnc[nH]2)C(=O)N[C@@H](CC(C)C)C(=O)N(C)CC(=O)N[C@@H](Cc2c[nH]c3ccccc23)C(=O)N[C@@H](CO)C(=O)N[C@@H](Cc2c[nH]c3ccccc23)C(=O)N1C (some centres unmarked) [Compound No. 21] ({CH2CO}-F[NMeA]N[ξP]HL[Sar]WSW[NMeNle][NMeA]RCG-NH2; thioether N-14) | 21 nM | – |
| CCCC[C@H]1C(=O)N(C)[C@@H](CCCC)C(=O)N[C@@H](CCCNC(=N)N)C(=O)N[C@H](C(=O)NCC(N)=O)CSCC(=O)N[C@@H](Cc2ccccc2)C(=O)N(C)[C@@H](C)C(=O)N[C@@H](CC(N)=O)C(=O)N2CCC[C@H]2C(=O)N[C@@H](Cc2cnc[nH]2)C(=O)N[C@@H](CC(C)C)C(=O)N(C)[C@@H](CO)C(=O)N[C@@H](Cc2c[nH]c3ccccc23)C(=O)N[C@@H](CO)C(=O)N[C@@H](Cc2c[nH]c3ccccc23)C(=O)N1C [Compound No. 56] ({CH2CO}-F[NMeA]NPHL[NMeS]WSW[NMeNle][NMeNle]RCG-NH2; thioether N-14) | 13 nM | – |
| CCCC[C@@H]1NC(=O)[C@H](CCCC)N(C)C(=O)[C@H](Cc2c[nH]c3ccccc23)NC(=O)[C@H](CO)NC(=O)[C@H](Cc2c[nH]c3ccccc23)NC(=O)CN(C)C(=O)[C@H](CC(C)C)NC(=O)[C@H](Cc2cnc[nH]2)NC(=O)C2CCCN2C(=O)[C@H](CC(N)=O)NC(=O)[C@H](C)N(C)C(=O)[C@H](Cc2ccccc2)NC(=O)CSC[C@@H](C(=O)NCC(N)=O)NC(=O)[C@H](CCCNC(=N)N)NC1=O (some centres unmarked) [Compound No. 20] ({CH2CO}-F[NMeA]N[ξP]HL[Sar]WSW[NMeNle][Nle]RCG-NH2; thioether N-14) | 8460 nM | – |
| CCCC[C@H]1C(=O)N(C)[C@@H](CCCC)C(=O)N[C@@H](CCCN)C(=O)N[C@H](C(=O)NCC(N)=O)CSCC(=O)N[C@@H](Cc2ccc(O)cc2)C(=O)N2CCC[C@H]2C(=O)N[C@@H](CC(N)=O)C(=O)N2CCC[C@H]2C(=O)N[C@@H](Cc2cnc[nH]2)C(=O)N[C@@H](CC(C)C)C(=O)N2C[C@H](O)C[C@H]2C(=O)N[C@@H](Cc2c[nH]c3ccccc23)C(=O)N[C@@H](CO)C(=O)N[C@@H](Cc2c[nH]c3ccccc23)C(=O)N1C [Example 1173] ({CH2CO}-YPNPHL[Hyp]WSW[NMeNle][NMeNle][Orn]CG-NH2; thioether N-14) | – | IC50 (read-out: HTRF IC50 value): 2.71 nM |
| CCCC[C@H]1C(=O)N(C)[C@@H](CCCC)C(=O)N[C@@H](CCCNC(=N)N)C(=O)N[C@H](C(=O)NCC(N)=O)CSCC(=O)N[C@@H](Cc2ccccc2)C(=O)N(C)[C@@H](C)C(=O)N[C@@H](CC(N)=O)C(=O)N2CCC[C@H]2C(=O)N[C@@H](Cc2cnc[nH]2)C(=O)N[C@@H](CC(C)C)C(=O)N(C)CC(=O)N[C@@H](Cc2c[nH]c3ccccc23)C(=O)N[C@@H](CO)C(=O)N[C@@H](CCSC)C(=O)N1C [Compound No. 61] ({CH2CO}-F[NMeA]NPHL[Sar]WSM[NMeNle][NMeNle]RCG-NH2; thioether N-14) | 31 nM | – |
| CCCC[C@@H]1NC(=O)[C@H](Cc2c[nH]c3ccccc23)NC(=O)[C@H](CO)NC(=O)[C@H](Cc2c[nH]c3ccccc23)NC(=O)CN(C)C(=O)[C@H](CC(C)C)NC(=O)[C@H](Cc2cnc[nH]2)NC(=O)C2CCCN2C(=O)[C@H](CC(N)=O)NC(=O)[C@H](C)N(C)C(=O)[C@H](Cc2ccccc2)NC(=O)CSC[C@@H](C(=O)NCC(N)=O)NC(=O)[C@H](CCCNC(=N)N)NC(=O)[C@H](CCCC)N(C)C1=O (some centres unmarked) [Compound No. 18] ({CH2CO}-F[NMeA]N[ξP]HL[Sar]WSW[Nle][NMeNle]RCG-NH2; thioether N-14) | 36 nM | – |
| CCCC[C@H]1C(=O)N(C)CC(=O)N[C@@H](CC(=O)O)C(=O)N[C@@H](C(C)C)C(=O)N[C@@H](Cc2ccccc2)C(=O)N[C@@H](Cc2ccc(O)cc2)C(=O)N(C)CC(=O)N[C@@H](Cc2c[nH]c3ccccc23)C(=O)N[C@@H](Cc2ccc(O)cc2)C(=O)N[C@@H](CC(C)C)C(=O)N[C@H](C(=O)NCC(N)=O)CSCC(=O)N[C@@H](Cc2ccccc2)C(=O)N(C)[C@@H](Cc2ccccc2)C(=O)N1C [Compound No. 82] (HELM PEPTIDE1{[O=C(C[*:3])[*:2]].F.[meF].[CCCC[C@@H](C(=O)[*:2])N(C)[*:1]].[Sar].D.V.F.Y.[Sar].W.Y.L.C.G.[am]}$PEPTIDE1,PEPTIDE1,1:R3-14:R3$$$V2.0) | – | IC50 (Table 9, Compound No. 71 variant macrocyclic peptides, read-out: HTRF Human PD-L1/PD-1 Binding Assay IC50): 47 nM |
| CCCC[C@H]1C(=O)N(C)[C@@H](CCCC)C(=O)N[C@@H](CCCNC(=N)N)C(=O)N[C@H](C(=O)NCC(N)=O)CSCC(=O)N[C@@H](Cc2ccccc2)C(=O)N(C)[C@@H](C)C(=O)N[C@@H](C)C(=O)N2CCCC2C(=O)N[C@@H](Cc2cnc[nH]2)C(=O)N[C@@H](CC(C)C)C(=O)N(C)CC(=O)N[C@@H](Cc2c[nH]c3ccccc23)C(=O)N[C@@H](CO)C(=O)N[C@@H](Cc2c[nH]c3ccccc23)C(=O)N1C (some centres unmarked) [Compound No. 8] ({CH2CO}-F[NMeA]A[ξP]HL[Sar]WSW[NMeNle][NMeNle]RCG-NH2; thioether N-14) | 31 nM | – |
